Results on ten compounds are retold here after patent US11384097B2, “Tetrahydroisoquinoline derivative, preparation method therefor and use thereof” (ZHEJIANG HISUN PHARMACEUTICAL CO., LTD., priority 2018, dated 2022).

A short description of series [1]: Pharmacokinetic study in SD rats (intravenous injection and intragastric administration). Type of series: in vivo, Sprague Dawley (SD) rats. The note with it: male, Sprague-Dawley, rat, plasma; for half-life: read-out: Half-life T1/2 (converted); for AUC(0-inf): read-out: area under curve AUC0-∞; for MRT: read-out: residence time MRT. The method, then: Test Example 3. Oral Pharmacokinetic Studies of the Compounds of the Present Disclosure in SD Rats
SD rats were used as the experimental animal. The rats were intravenously injected or intragastrically administered with the compounds of the present disclosure, and the drug concentrations in plasma at different times were tested by LC/MS/MS methods, so as to research the pharmacokinetic characteristics of compounds of present disclosure in rats.
Forty-eight healthy adult Sprague Dawley (SD) male rats were purchased from Weitong Lihua Laboratory Animal Technology Co., Ltd., production license number: 11400700271077.
48 healthy adult male SD rats were fasted overnight and administered via tail vein injection (at a dosage of 1 mg/kg) and intragastrically administered (at a dosage of 10 mg/kg), respectively. The rats were fed 4 h after the administration.
About 0.2 mL of blood was collected from the jugular vein before administering and at 0.083 hours, 0.25 hours, 0.5 hours, 1 hour, 2 hours, 4 hours, 8 hours, 12 hours, and 24 hours after administering, and heparin sodium was used for anticoagulation. Blood samples were collected and placed on ice, and plasma was separated by centrifugation (centrifugation conditions: 1500 g, 10 min). The collected plasma was stored at −40° C.-20° C. before analysis.
10 μL of plasma sample was taken and 400 μL of acetonitrile (containing internal standard working solution, comprising 5 ng/mL verapamil and 50 ng/mL glibenclamide) was added. The resulting mixture was vortexed for 10 minutes, and centrifuged at 3700 rpm for 10 minutes. 70 μL of the supernatant was taken, and […] of water was added. The resulting mixture was vortexed for 10 minutes, and 2 μL of the mixture was transferred to the LC-MS/MS for sample analysis.

Series [2] concerns the target T1, Human AT2R (Homo sapiens, UniProt P50052).
T1 construct: Terbium (Tb) donor label on the receptor; From my own knowledge, the Tag-lite format usually uses an N-terminal SNAP-tag fusion labelled with Lumi4-Tb; expressed in transfected cells
T1 sequence (P50052 1-363): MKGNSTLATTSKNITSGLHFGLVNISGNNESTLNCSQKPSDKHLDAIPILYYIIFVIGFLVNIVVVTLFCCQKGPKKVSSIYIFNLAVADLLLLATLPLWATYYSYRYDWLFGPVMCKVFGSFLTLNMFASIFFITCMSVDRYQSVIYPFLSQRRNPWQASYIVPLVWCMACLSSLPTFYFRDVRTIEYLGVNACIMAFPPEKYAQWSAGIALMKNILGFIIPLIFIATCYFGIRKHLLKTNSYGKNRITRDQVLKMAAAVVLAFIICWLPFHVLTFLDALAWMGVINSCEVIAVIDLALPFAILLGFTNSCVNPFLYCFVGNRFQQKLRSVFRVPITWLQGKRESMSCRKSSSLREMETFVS
Kind of series: Antagonistic activity assay on human AT2R ligand binding (Tag-lite HTRF, Tb-labeled-AT2R cells). The note with it: AT2 ligand binding, red agonist fluorescent ligand. Background: Time-resolved FRET reads energy transfer from a long-lived donor to a nearby acceptor.
Procedure: Antagonistic Activity Assay of the Compound of the Present Disclosure on Human AT2R Ligand Binding
According to standard methods, all compounds were dissolved in dimethyl sulfoxide and prepared as 10 mM stock solutions.
(3) Each of the diluted compound in step (2) was transferred to a working plate (3657, Corning) at 160 nL/well, at 200 g, at room temperature for 1 minute;
(4) 40 μl 1×TLB was added to the above working plate, and it was centrifuged at 200 g (centrifugal force) at room temperature for 1 minute, shook on a shaker for 15 minutes to mix well, and centrifuged at 200 g (working concentration of the compound was 4×) at room temperature for 1 minute for later use;
(6) 5 mL 1×TLB was taken in a 15 mL centrifuge tube;
(7) a Tb-labeled-AT2R cells were frozen and thawed in a 37° C. water bath until the ice was completely melted (1-2 minutes);
(8) The frozen and thawed cells were rapidly transferred to the 1×TLB in step (6), and the resulting solution was mixed gently, and then centrifuged at 1200 g at room temperature for 5 minutes;
After being mixed well, the resulting mixture was placed at room temperature for late use;
(11) The reaction plate was centrifuged at 200 g at room temperature for 1 minute, and stood for 1 hour at room temperature of 25° C., and then it was centrifuged at 200 g at room temperature for 1 minute. The data was collected using Envision HTRF microplate reader, and IC50 was calculated using a nonlinear fitting formula.

Setting [3] is: iv, Injection (1 mg/kg), tail vein.

Read-outs that look alike come from different tables or passages of the source.

As for `COc1ccc2c(c1OCc1ccccc1)CC(C(=O)NS(=O)(=O)N(C)C)N(c1nc3ccccc3o1)C2` (centres unmarked) [Example 9, 2-(Benzo[d]oxazol-2-yl)-5-(benzyloxy)-N—(N,N-dimethylsulfonyl)-6-methoxy-1,2,3,4-tetrahydroisoquinoline-3-carboxamide], the bioavailability – broadly, dose-corrected exposure relative to a reference, in per cent – in series [1] (Oral (10 mg/kg) vs Injection (1 mg/kg), read-out: Bioavailability F(%)) was 71.1%. Moreover, in series [1] (Oral (10 mg/kg)), the half-life was 2.1 ± 1.6 h; the AUC(0-inf) was determined as 18100 ± 5400 ng·h/mL; the mean residence time (MRT) (usually a mean duration of stay, worked out from the concentration-time curve) was found to be 2.2 ± 0.8 h. The Cmax in series [1] (Oral (10 mg/kg), read-out: blood concentration Cmax) came to 9470 ± 5890 ng/mL. Further, in series [1] (setting [3]), the half-life is 1.3 ± 0.1 h, the AUC(0-inf) came out at 2550 ± 720 ng·h/mL and the MRT came out at 1.3 ± 0.2 h.
Turning to `COc1ccc2c(c1OCc1ccccc1)C[C@@H](C(=O)O)N(c1nc3ccc(Cl)cc3o1)C2` [Example 16, (S)-5-(benzyloxy)-2-(6-chlorobenzo[d]oxazol-2-yl)-6-methoxy-1,2,3,4-tetrahydroisoquinoline-3-carboxylic acid], in series [2], the IC50 (commonly the midpoint of a concentration-inhibition curve) came out at 36 nM.
On the same count and under the same terms, as for `COc1ccc2c(c1COc1ccccc1)C[C@@H](C(=O)NS(=O)(=O)N(C)C)N(c1nc3ccc(F)cc3o1)C2` [Example 20, (S)—N—(N,N-dimethylaminosulfonyl)-2-(6-fluorobenzo[d]oxazol-2-yl)-6-methoxy-5-(phenoxymethyl)-1,2,3,4-tetrahydroisoquinoline-3-carboxamide], the figure is 26 nM; as for `COc1ccc2c(c1COc1ccccc1)C[C@@H](C(=O)NS(=O)(=O)C1CC1)N(c1nc3ccc(F)cc3o1)C2` [Example 21, (S)—N-(cyclopropylsulfonyl)-2-(6-fluorobenzo[d]oxazol-2-yl)-6-methoxy-5-(phenoxymethyl)-1,2,3,4-tetrahydroisoquinoline-3-carboxamide], 36 nM; as for `COc1ccc2c(c1OCc1ccccc1)C[C@@H](C(=O)NS(C)(=O)=O)N(c1nc3ccc(F)cc3o1)C2` [Example 26, (S)-5-(Benzyloxy)-2-(6-fluorobenzo[d]oxazol-2-yl)-6-methoxy-N-(methylsulfonyl)-1,2,3,4-tetrahydroisoquinoline-3-carboxamide], 37 nM.
In series [2], `COc1ccc2c(c1OCc1ccc(C(F)(F)F)cc1)C[C@@H](C(=O)O)N(c1nc3ccc(F)cc3o1)C2` [Example 38, (S)-2-(6-fluorobenzo[d]oxazol-2-yl)-6-methoxy-5-((4-(trifluoromethyl)benzyl)oxy)-1,2,3,4-tetrahydroisoquinoline-3-carboxylic acid] registered an IC50 of 11 nM.
`COc1ccc(COc2c(OC)ccc3c2C[C@@H](C(=O)O)N(c2nc4ccc(C#N)cc4o2)C3)cn1` [Example 43, (S)-2-(6-cyanobenzo[d]oxazol-2-yl)-6-methoxy-5-((6-methoxypyridin-3-yl)methoxy)-1,2,3,4-tetrahydroisoquinoline-3-carboxylic acid] yielded an IC50 in series [2] of 33 nM.
Still for that read-out and setting: as for `COc1ccc(COc2c(OC)ccc3c2C[C@@H](C(=O)O)N(c2nc4ccc(C#N)cc4o2)C3)nc1` [Example 44, (S)-2-(6-cyanobenzo[d]oxazol-2-yl)-6-methoxy-5-((5-methoxypyridin-2-yl)methoxy)-1,2,3,4-tetrahydroisoquinoline-3-carboxylic acid], the figure is 33 nM.
In series [2], `CCS(=O)(=O)NC(=O)[C@@H]1Cc2c(ccc(OC)c2OCc2ccc(OC)cc2)CN1c1nc2ccc(F)cc2o1` [Example 45, (S)—N-(ethylsulfonyl)-2-(6-fluorobenzo[d]oxazol-2-yl)-6-methoxy-5-((4-methoxybenzyl)oxy)-1,2,3,4-tetrahydroisoquinoline-3-carboxamide] had an IC50 of 6 nM.
For the compound `COc1ccc(COc2c(OC)ccc3c2C[C@@H](C(=O)NS(=O)(=O)N(C)C)N(c2nc4ccc(F)cc4o2)C3)cc1` [Example 46], the IC50 in series [2] came to 5 nM.
